According to publication PMC3196794 (Chemical research in toxicology, 2011):
Like-named read-outs stand apart in the source and are kept apart here.

Tests used:
hSULT2A1 [1] = target: T1, hSULT2A1 (Homo sapiens, UniProt Q06520); assay: CoMFA 3D-QSAR model for inhibition of hSULT2A1 by OHPCBs; conditions: for Difference between the experimental and the predicted values for pIC50: CoMFA Model 1
T1 sequence (Q06520 1-285): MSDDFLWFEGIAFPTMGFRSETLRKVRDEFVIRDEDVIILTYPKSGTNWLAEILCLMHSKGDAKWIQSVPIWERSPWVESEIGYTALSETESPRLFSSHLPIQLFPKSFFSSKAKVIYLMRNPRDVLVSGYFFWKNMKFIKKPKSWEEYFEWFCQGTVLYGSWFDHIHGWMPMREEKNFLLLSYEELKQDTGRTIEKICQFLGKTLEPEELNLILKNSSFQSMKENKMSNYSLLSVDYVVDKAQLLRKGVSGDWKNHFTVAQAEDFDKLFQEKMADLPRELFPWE

hSULT2A1 [2] = target: T1, hSULT2A1; assay: Inhibition of the sulfation of DHEA catalyzed by hSULT2A1; assay type: biochemical
hSULT2A1 [3] = target: T1, hSULT2A1; assay: OHPCBs as substrates for hSULT2A1; assay type: biochemical; conditions: 200 μM PAPS; fit to substrate inhibition equation
hSULT2A1 [4] = target: T1, hSULT2A1; conditions: 200 μM PAPS; cited from earlier work
[5] = pH 7
[6] = Actual pIC50, -log IC50 (M), Table 3
[7] = IC50 (inhibition of the sulfation of DHEA catalyzed by hSULT2A1), 1 μM [3H]DHEA, 200 μM PAPS, pH 7.0, 37°C, 10 min, mean ± standard error of the fit

SMILES | Difference between the experimental and the predicted values for pIC50 (hSULT2A1 [1]) | IC50 (hSULT2A1 [2]; [6]) | IC50 (hSULT2A1 [2]; [7]) | Kis (substrate inhibition constant) (hSULT2A1 [3]) | further results
Oc1ccc(-c2ccc(Cl)c(Cl)c2)cc1 [4′-OHPCB 12, 4′-hydroxy-3,4-dichlorobiphenyl] | 0.039 | 1.58e-05 M | 1.6e-05 ± 1.1e-06 M |  | IC50 (hSULT2A1 [2]; Actual IC50, Table 4): 1.58e-05 M
Oc1c(Cl)cc(-c2ccc(Cl)cc2Cl)cc1Cl [4′-OHPCB 68, 4′-hydroxy-2, 3′, 4, 5′-tetrachlorobiphenyl] | 0.056 | 8e-07 M |  |  | 
Oc1ccc(-c2ccc(Cl)cc2)c(Cl)c1 [4-OHPCB 8, 4-hydroxy-2, 4′-dichlorobiphenyl] | 0.303 | 1e-05 M | 1e-05 ± 1.2e-06 M | 65.4 ± 73.8 µM | 
Oc1ccc(-c2ccc(Cl)c(Cl)c2)c(Cl)c1 [4′-OHPCB 33, 4′-hydroxy-2′, 3,4-trichlorobiphenyl] | 0.099 | 2.5e-06 M | 2.5e-06 ± 1.1e-06 M | 217 ± 189 µM | 
C[C@]12CC[C@H](O)CC1=CC[C@@H]1[C@@H]2CC[C@]2(C)C(=O)CC[C@@H]12 [DHEA, dehydroepiandrosterone] |  |  |  |  | Kis with DHEA as substrate (hSULT2A1 [4]): 8 ± 3 µM; Vmax with DHEA as substrate (hSULT2A1 [4]): 245 ± 40 nmol/min/mg
Oc1ccc(-c2ccccc2Cl)cc1Cl [4′-OHPCB 6, 4′-hydroxy-2, 3′-dichlorobiphenyl] | 0.108 | 9.79e-06 M | 9.8e-06 ± 1.1e-06 M |  | 
Oc1ccc(-c2ccc(Cl)cc2)cc1 [4′-OHPCB 3, 4′-hydroxy-4-monochlorobiphenyl] | 0.026 | 2.81e-05 M | 2.8e-05 ± 1.1e-06 M |  | 
Oc1ccc(-c2cccc(Cl)c2)cc1Cl [4-OHPCB 11, 4-hydroxy-3, 3′-dichlorobiphenyl] | 0.011 | 1.4e-05 M | 1.4e-05 ± 1.2e-06 M | 51.9 ± 65.7 µM | 
Oc1ccc(-c2cccc(Cl)c2Cl)cc1O [3′,4′-diOHPCB 5, 3′, 4′-dihydroxy-2,3-dichlorobiphenyl] | 0.054 | 1.59e-05 M | 1.6e-05 ± 1.1e-06 M |  | 
Oc1ccc(-c2ccc(Cl)cc2Cl)cc1Cl [4′-OHPCB 25, 4′-hydroxy-2, 3′, 4-trichlorobiphenyl] | 0.084 | 4.4e-06 M | 4.4e-06 ± 1.3e-06 M |  | solubility [5]: low solubility; IC50 (hSULT2A1 [2]; Actual IC50, Table 4): 4.4e-06 M
Oc1ccc(Cl)cc1-c1ccc(Cl)c(Cl)c1 [6′-OHPCB 35, 6′-hydroxy-3, 3′-4 trichlorobiphenyl] | 0.088 |  |  |  | Actual pIC50 (hSULT2A1 [2]; -log IC50 (M), Table 3): 4.810; IC50 (hSULT2A1 [2]; read-out: IC50 (inhibition of the sulfation of DHEA catalyzed by hSULT2A1), 1 μM [3H]DHEA, 200 μM PAPS, pH 7.0, 37°C, 10 min, mean ± standard error of the fit): 1.6e-05 ± 1.1e-06 M
Oc1ccc(-c2ccc(Cl)cc2)cc1O [3′,4′-diOHPCB 3, 3′, 4′-dihydroxy-4-monochlorobiphenyl] | 0.072 |  | 9.6e-05 ± 1.2e-06 M |  | IC50 (hSULT2A1 [2]; IC50 (experimental, Table 3), experimental values used for CoMFA Model 1): 9.57e-05 M
Oc1c(Cl)cc(-c2ccccc2)cc1Cl [4-OHPCB 14, 4-hydroxy-3,5-dichlorobiphenyl] | 0.196 | 1.3e-05 M | 1.3e-05 ± 1.1e-06 M | 220 ± 56 µM | fold difference between the predicted and the actual IC50 values (hSULT2A1 [1]; CoMFA Model 2): 3.8 fold; IC50 (hSULT2A1 [2]; Actual IC50, Table 4): 1.3e-05 M
Oc1ccc(-c2cc(Cl)ccc2Cl)cc1 [4′-OHPCB 9, 4′-hydroxy-2,5-dichlorobiphenyl] | 0.011 | 7.5e-06 M | 7.5e-06 ± 1.1e-06 M |  | 
Oc1c(Cl)cc(-c2ccccc2Cl)cc1Cl [4-OHPCB 34, 4-hydroxy-2′, 3,5-trichlorobiphenyl] | 0.199 | 6e-07 M |  | 47.4 ± 16.2 µM | fold decrease in IC50 compared with 4-OHPCB 36 (hSULT2A1 [2]; chlorine in the non-phenolic ring changed from meta to ortho): approximately 7 fold
Oc1c(Cl)cc(-c2cccc(Cl)c2)cc1Cl [4-OHPCB 36, 4-hydroxy-3, 3′, 5-trichlorobiphenyl] | 0.088 | 4.4e-06 M | 4.4e-06 ± 1.2e-06 M | 39.4 ± 23.1 µM | 
